Activity calls are given as the source filed them. The calls are words filed in the database; no cut-off is given here.
Columns and labels:
[1] = target: Protein smoothened (Mus musculus) (UniProt P56726); experiment: (§1) Antagonist activity at SMO in mouse NIH/3T3 cells harboring Gli-responsive firefly luciferase gene assessed as inhibition of SAG-induced response preincubated for 2 hrs followed by SAG addition and measured after 24 hrs by Bright-Glo luciferase assay; format: cell-based
Protein smoothened [2] = target: T1, Protein smoothened (Homo sapiens, UniProt Q99835); experiment: Displacement of BODIPY-LY from SMO (unknown origin) expressed in HEK293F cells measured after 15 mins by flow cytometric analysis; format: cell-based
T1 sequence (Q99835 whole entry): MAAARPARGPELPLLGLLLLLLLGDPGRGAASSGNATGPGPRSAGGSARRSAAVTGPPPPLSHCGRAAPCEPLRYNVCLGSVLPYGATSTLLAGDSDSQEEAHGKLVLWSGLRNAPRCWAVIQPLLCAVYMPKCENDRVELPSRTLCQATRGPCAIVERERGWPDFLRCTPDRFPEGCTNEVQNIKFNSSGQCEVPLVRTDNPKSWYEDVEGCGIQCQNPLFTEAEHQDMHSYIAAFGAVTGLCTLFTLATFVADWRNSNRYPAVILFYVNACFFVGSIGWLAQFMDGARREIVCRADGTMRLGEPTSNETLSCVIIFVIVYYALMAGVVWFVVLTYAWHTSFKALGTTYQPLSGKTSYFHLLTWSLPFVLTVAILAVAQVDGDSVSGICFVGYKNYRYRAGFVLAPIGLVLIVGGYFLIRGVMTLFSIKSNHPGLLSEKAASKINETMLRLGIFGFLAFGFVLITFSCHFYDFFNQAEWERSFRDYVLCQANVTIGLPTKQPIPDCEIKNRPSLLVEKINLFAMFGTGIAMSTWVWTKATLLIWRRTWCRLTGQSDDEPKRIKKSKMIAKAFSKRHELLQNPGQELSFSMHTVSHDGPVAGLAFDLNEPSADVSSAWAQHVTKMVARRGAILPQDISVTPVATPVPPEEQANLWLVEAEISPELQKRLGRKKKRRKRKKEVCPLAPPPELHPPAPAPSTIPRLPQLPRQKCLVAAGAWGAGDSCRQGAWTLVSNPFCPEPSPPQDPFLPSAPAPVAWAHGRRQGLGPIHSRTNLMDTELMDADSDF

Protein smoothened [3] = target: Protein smoothened (Mus musculus, UniProt P56726); experiment: as §1; format: cell-based
Protein smoothened (Mus musculus, UniProt P56726), sequence (P56726 whole entry): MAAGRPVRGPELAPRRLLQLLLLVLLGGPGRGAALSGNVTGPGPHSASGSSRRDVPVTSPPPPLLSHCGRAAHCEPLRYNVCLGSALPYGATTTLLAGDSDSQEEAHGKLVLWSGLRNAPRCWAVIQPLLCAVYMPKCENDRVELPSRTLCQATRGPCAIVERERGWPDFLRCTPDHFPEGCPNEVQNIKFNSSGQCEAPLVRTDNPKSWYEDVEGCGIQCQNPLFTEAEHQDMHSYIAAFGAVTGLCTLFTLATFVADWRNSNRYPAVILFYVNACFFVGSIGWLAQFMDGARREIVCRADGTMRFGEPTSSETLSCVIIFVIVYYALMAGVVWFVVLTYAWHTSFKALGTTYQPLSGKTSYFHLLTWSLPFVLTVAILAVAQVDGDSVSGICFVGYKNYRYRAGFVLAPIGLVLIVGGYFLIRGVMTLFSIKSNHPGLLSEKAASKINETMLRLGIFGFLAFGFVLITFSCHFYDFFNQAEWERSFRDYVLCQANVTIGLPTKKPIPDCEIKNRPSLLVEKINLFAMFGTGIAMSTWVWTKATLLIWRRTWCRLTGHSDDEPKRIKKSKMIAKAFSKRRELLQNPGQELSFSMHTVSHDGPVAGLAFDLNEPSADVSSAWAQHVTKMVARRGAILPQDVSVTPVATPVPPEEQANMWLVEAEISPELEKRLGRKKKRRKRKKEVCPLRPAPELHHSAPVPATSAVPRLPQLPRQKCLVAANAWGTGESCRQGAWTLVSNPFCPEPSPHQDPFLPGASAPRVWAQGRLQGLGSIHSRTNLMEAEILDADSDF

Protein smoothened [4] = target: T1, Protein smoothened; experiment: Binding affinity to recombinant human SMO at 0.1 to 20 uM preincubated for 1 hr followed by 365 nm UV irradiation for 20 mins and subsequent addition of TAMRA-N3 measured after 1 hr by fluorescence-based SDS-PAGE analysis
Protein smoothened [5] = target: T1, Protein smoothened; experiment: Binding affinity to recombinant SMO Glu135 residue (unknown origin) at 20 uM preincubated for 3 hrs followed by UV irradiation for 15 mins by MS/MS analysis
Protein smoothened [6] = target: T1, Protein smoothened; experiment: Binding affinity to recombinant SMO Lys510 residue (unknown origin) at 20 uM preincubated for 3 hrs followed by UV irradiation for 15 mins by MS/MS analysis
Protein smoothened [7] = target: T1, Protein smoothened; experiment: Binding affinity to recombinant SMO Glu518 residue (unknown origin) assessed as modification of NRPSLLVEK (511 to 519 residue) at 20 uM preincubated for 3 hrs followed by UV irradiation for 15 mins by MS/MS analysis
Protein smoothened [8] = target: T1, Protein smoothened; experiment: Binding affinity to recombinant SMO Lys186 residue (unknown origin) at 20 uM preincubated for 3 hrs followed by UV irradiation for 15 mins by MS/MS analysis
Protein smoothened [9] = target: T1, Protein smoothened; experiment: Binding affinity to recombinant SMO Leu498 residue (unknown origin) at 20 uM preincubated for 3 hrs followed by UV irradiation for 15 mins by MS/MS analysis
Protein smoothened [10] = target: T1, Protein smoothened; experiment: Binding affinity to recombinant SMO Glu158 residue (unknown origin) at 20 uM preincubated for 3 hrs followed by UV irradiation for 15 mins by MS/MS analysis
Protein smoothened [11] = target: T1, Protein smoothened; experiment: Binding affinity to recombinant SMO Gly529 residue (unknown origin) assessed as modification of INLFAMFGTGIAMSTWVWTKATLLIWRR peptide at 20 uM preincubated for 3 hrs followed by UV irradiation for 15 mins by MS/MS analysis
Protein smoothened [12] = target: T1, Protein smoothened; experiment: Binding affinity to recombinant SMO Thr349 residue (unknown origin) at 20 uM preincubated for 3 hrs followed by UV irradiation for 15 mins by MS/MS analysis
Protein smoothened [13] = target: T1, Protein smoothened; experiment: Binding affinity to recombinant SMO Ala345 residue (unknown origin) at 20 uM preincubated for 3 hrs followed by UV irradiation for 15 mins by MS/MS analysis
Protein smoothened [14] = target: T1, Protein smoothened; experiment: Binding affinity to recombinant SMO Gly527 residue (unknown origin) assessed as modification of INLFAMFGTGIAMSTWVWTKATLLIWRR peptide at 20 uM preincubated for 3 hrs followed by UV irradiation for 15 mins by MS/MS analysis
Protein smoothened [15] = target: T1, Protein smoothened; experiment: Binding affinity to recombinant SMO His103 residue (unknown origin) at 20 uM preincubated for 3 hrs followed by UV irradiation for 15 mins by MS/MS analysis
Protein smoothened [16] = target: T1, Protein smoothened; experiment: Binding affinity to recombinant SMO Thr528 residue (unknown origin) assessed as modification of INLFAMFGTGIAMSTWVWTKATLLIWRR peptide at 20 uM preincubated for 3 hrs followed by UV irradiation for 15 mins by MS/MS analysis

Protein smoothened (Mus musculus), sequence (P56726 whole entry): as the sequence (P56726 whole entry) above

| SMILES | IC50 (Protein smoothened [3]) [nM] | Ki (Protein smoothened [2]) [nM] | also measured |
| --- | --- | --- | --- |
| C[C@H]1C(=O)N(c2ccc(Cl)cc2)C(=O)N1Cc1ccc(C2(C(F)(F)F)N=N2)cc1 | – | – | Activity [1]: inactive; inhibition (Protein smoothened [2]): inactive |
| C[C@H]1CN(c2ccc(Cl)cc2)C(=O)N1Cc1ccccc1 | 4550 | – | – |
| C[C@H]1C(=O)N(c2ccc(Cl)cc2)C(=O)N1Cc1c(F)c(F)c(F)c(F)c1F | 7380 | – | – |
| FC(F)(F)Oc1ccc(-c2ccnc(Nc3ccc4[nH]ncc4c3)n2)cc1 | – | 30 | – |
| C[C@H]1C(=O)N(c2ccc(Cl)cc2)C(=O)N1c1ccccc1 | 547 | – | – |
| C[C@H]1C(=O)N(c2ccc(Cl)cc2)C(=S)N1Cc1ccccc1 | 3790 | – | – |
| C#CCOc1ccc(N2C(=O)[C@H](C)N(Cc3ccc(N=[N+]=[N-])cc3)C2=O)cc1 | 31 | 28 | Activity (Protein smoothened [4]): Active |
| C[C@H]1C(=O)N(c2ccc(Cl)cc2)C(=O)N1Cc1ccc(N=[N+]=[N-])cc1 | 3 | 45 | Activity (Protein smoothened [10]): Active; Activity (Protein smoothened [11]): Active; Activity (Protein smoothened [12]): Active; Activity (Protein smoothened [13]): Active; Activity (Protein smoothened [14]): Active; Activity (Protein smoothened [15]): Active; Activity (Protein smoothened [16]): Active |

More lines, main results first:

| IC50 (Protein smoothened [3]) [nM] | Ki (Protein smoothened [2]) [nM] | SMILES | also measured |
| --- | --- | --- | --- |
| 92 | – | C[C@H]1C(=O)N(c2ccc(Cl)cc2)C(=O)N1CCc1ccccc1 | – |
| 59 | 33 | C[C@H]1C(=O)N(c2ccc(Cl)cc2)C(=O)N1Cc1ccccc1 | – |
| 8100 | – | C[C@H]1C(=O)N(Cc2ccc(Cl)cc2)C(=O)N1Cc1ccccc1 | – |
| 1530 | – | C[C@H]1C(=O)N(c2c(F)c(F)c(F)c(F)c2F)C(=O)N1Cc1ccccc1 | – |
| 58 | 55 | C[C@H]1C(=O)N(c2ccc(N=[N+]=[N-])cc2)C(=O)N1Cc1ccccc1 | Activity (Protein smoothened [5]): Active; Activity (Protein smoothened [6]): Active; Activity (Protein smoothened [7]): Active; Activity (Protein smoothened [8]): Active; Activity (Protein smoothened [9]): Active |
| 383 | – | C[C@H]1C(=O)N(c2ccc(Cl)cc2)C(=O)N1CC1CCCCC1 | – |
| 8010 | – | C[C@H]1C(=O)N(C2CCCCC2)C(=O)N1Cc1ccccc1 | – |

From ChEMBL document CHEMBL4414554, “Colocalization Strategy Unveils an Underside Binding Site in the Transmembrane Domain of Smoothened Receptor” (J Med Chem, 2019)
